{"source": "patent US5814666A", "about": "“Encapsulated and non-encapsulated nitric oxide generators used as antimicrobial agents” (The United States as represented by the Department of …, priority 1995, dated 1998)", "key": {"[1]": {"assay": "Half-life of nitric oxide generators at pH 7.4 and 37° C. (Table 1)"}, "[2]": {"system": "P. falciparum clone CDC/Indochina III (W2)", "assay": "Anti-malaria in vitro screen, P. falciparum clone W2", "conditions": "Plasmodium falciparum"}, "[3]": {"system": "Francisella tularensis", "format": "in vivo, mice"}, "[4]": {"system": "Leishmania major", "assay": "Blocking Leishmania major growth in vitro compared with glucantime", "format": "cell-based", "conditions": "equivalent molar concentrations of NONOates and glucantime"}, "[5]": {"system": "Plasmodium falciparum", "assay": "Anti-malaria in vitro screen, overall result", "conditions": "in words"}, "[6]": {"system": "P. falciparum clone CDC/Sierra Leone I (D6)", "assay": "Anti-malaria in vitro screen, P. falciparum clone D6", "conditions": "Plasmodium falciparum"}, "[7]": {"assay": "Stability of nitric oxide generators in PBS at room temperature, absorbance (Table 5)", "conditions": "for Initial Abs. / 24-hour Abs.: PBS, at peak wavelength; for Initial Abs.: immediately; for 24-hour Abs.: room temperature; for degraded at 24 h: pbs"}, "[8]": {"system": "DNA synthesis", "conditions": "in words; cited from earlier work"}, "[9]": {"system": "macrophages", "assay": "NO2^- / NO release by macrophages after exposure to liposome-encapsulated or non-encapsulated NONOates (Table 8)", "conditions": "non-encapsulated; 50 μM, 1 hr incubation, culture medium after 24 hrs"}, "[10]": {"system": "Leishmania major", "assay": "microbe, parasite or virus in culture", "format": "cell-based", "conditions": "read-out: IC50 (growth inhibition)"}, "[11]": {"assay": "physchem", "conditions": "pH 7.4"}, "[12]": {"system": "Candida albicans", "assay": "microbe, parasite or virus in culture", "format": "cell-based", "conditions": "read-out: IC50 (growth inhibition)"}, "[13]": {"system": "Francisella tularensis", "assay": "microbe, parasite or virus in culture", "format": "cell-based", "conditions": "read-out: IC50 (growth inhibition)"}, "[14]": {"conditions": "in words; cited from earlier work"}, "[15]": {"system": "Mycobacterium tuberculosis", "conditions": "direct delivery; in words; cited from earlier work"}, "[16]": {"system": "tumor cells", "conditions": "tumor cells in vitro; in words; cited from earlier work"}, "[17]": {"conditions": "pH 7.4"}, "[18]": {"conditions": "pH 7.4, 37° C., result in words"}, "[19]": {"conditions": "experiment #1, IP 200 μM two days after inoculation"}}, "note": "Where a name gives a salt, the structure may show the parent alone. Read-outs that look alike come from different tables or passages of the source.", "data": [{"molecule": "[Na+].[Na+].[O-][N+]([O-])=NO", "note": "[OXI/NO, sodium trioxodinitrate(II) monohydrate]", "values": [{"measurement": "Half-life", "setting": "[1]; pH 7.4, 37° C.", "value": 2, "unit": "min"}]}, {"molecule": "CON=[N+]([O-])NC(C)C", "note": "[M-IPA/NO]", "values": [{"measurement": "Half-life", "setting": "[1]; [18]", "value": "stable"}]}, {"molecule": "CCN(CC)[N+]([O-])=NOCCBr", "note": "[BE-DEA/NO]", "values": [{"measurement": "Half-life", "setting": "[1]; [18]", "value": "stable"}]}, {"molecule": "CCN(CC)[N+]([O-])=NOCOC(C)=O", "note": "[acetoxy-DEA/NO]", "values": [{"measurement": "IC50", "setting": "[2]", "value": 17.7, "unit": "µg/mL"}, {"measurement": "IC90", "setting": "[2]", "value": 19.2, "unit": "µg/mL"}, {"measurement": "#Dead/Total", "setting": "[3]; [19]", "value": "2/4"}, {"measurement": "% Protected", "setting": "[3]; [19]", "value": 50, "unit": "%"}, {"measurement": "times more effective than glucantime at blocking Leishmania major growth", "setting": "[4]", "value": 8.9, "unit": "times"}, {"measurement": "Half-life", "setting": "[1]; [18]", "value": "stable"}, {"measurement": "anti-malarial effectiveness", "setting": "[5]", "value": "effective"}, {"measurement": "IC50", "setting": "[6]", "value": 0.267, "unit": "µg/mL"}, {"measurement": "IC90", "setting": "[6]", "value": 0.295, "unit": "µg/mL"}]}, {"molecule": "C=CCON=[N+]([O-])N(CC)CC", "note": "[A-DEA/NO]", "values": [{"measurement": "Half-life", "setting": "[1]; [18]", "value": "stable"}]}, {"molecule": "CCN(CC)[N+]([O-])=NOC", "note": "[M-DEA/NO]", "values": [{"measurement": "Half-life", "setting": "[1]; [18]", "value": "stable"}, {"measurement": "Initial Abs.", "setting": "[7]", "value": 3.454}, {"measurement": "24-hour Abs.", "setting": "[7]", "value": 3.020}, {"measurement": "degraded at 24 h", "setting": "[7]", "value": 14, "unit": "%"}]}, {"molecule": "CC(=O)N[C@H](C(=O)O)C(C)(C)SN=O", "note": "(racemic) [S-nitroso-N-acetylpenicillamine]", "values": [{"measurement": "inhibition of DNA synthesis", "setting": "[8]", "value": "effective at inhibiting DNA synthesis"}]}, {"molecule": "CCOC(=O)CON=[N+]([O-])NC(C)C", "note": "[CEM-IPA/NO]", "values": [{"measurement": "Half-life", "setting": "[1]; [18]", "value": "stable"}]}, {"molecule": "CCON=[N+]([O-])N(CC)CC", "note": "[E-DEA/NO]", "values": [{"measurement": "Half-life", "setting": "[1]; [18]", "value": "stable"}]}, {"molecule": "CCN(CC)[N+]([O-])=NOS(=O)(=O)N(C)C", "note": "[S-DEA/NO]", "values": [{"measurement": "Half-life", "setting": "[1]; pH 7.4", "value": 30, "unit": "min"}]}, {"molecule": "NCCCNCCCCN(CCCN)[N+]([O-])=NO", "note": "[SPER/NO, spermine-bis(nitric oxide) adduct monohydrate]", "values": [{"measurement": "IC50", "setting": "[2]", "value": 5.65, "unit": "µg/mL"}, {"measurement": "IC90", "setting": "[2]", "value": 10, "unit": "µg/mL"}, {"measurement": "NO2 --(nmol/ml)", "setting": "[9]", "value": "1 ± 1", "unit": "nmol/mL"}, {"measurement": "times more effective than glucantime at blocking Leishmania major growth", "setting": "[4]", "value": 6.7, "unit": "times"}, {"measurement": "IC50", "setting": "[10]", "value": "< 100", "unit": "µM"}, {"measurement": "Half-life", "setting": "[11]", "value": 39, "unit": "min"}, {"measurement": "IC50", "setting": "[12]", "value": "< 100", "unit": "µM"}, {"measurement": "anti-malarial effectiveness", "setting": "[5]", "value": "effective"}, {"measurement": "IC50", "setting": "[13]", "value": "< 10", "unit": "µM"}, {"measurement": "IC50", "setting": "[6]", "value": 5.31, "unit": "µg/mL"}, {"measurement": "IC90", "setting": "[6]", "value": 9.53, "unit": "µg/mL"}]}, {"molecule": "NCCN(CCN)[N+]([O-])=NO", "note": "[DETA/NO]", "values": [{"measurement": "IC50", "setting": "[2]", "value": 0.037, "unit": "µg/mL"}, {"measurement": "IC90", "setting": "[2]", "value": 0.094, "unit": "µg/mL"}, {"measurement": "NO2 --(nmol/ml)", "setting": "[9]", "value": 0, "unit": "nmol/mL"}, {"measurement": "times more effective than glucantime at blocking Leishmania major growth", "setting": "[4]", "value": 7.2, "unit": "times"}, {"measurement": "IC50", "setting": "[10]", "value": "< 10000", "unit": "µM"}, {"measurement": "IC50", "setting": "[12]", "value": "< 100", "unit": "µM"}, {"measurement": "IC50", "setting": "[13]", "value": "< 100", "unit": "µM"}, {"measurement": "IC50", "setting": "[6]", "value": 4.83, "unit": "µg/mL"}, {"measurement": "IC90", "setting": "[6]", "value": 10.1, "unit": "µg/mL"}]}, {"molecule": "O=[N+]([O-])OCC(CO[N+](=O)[O-])O[N+](=O)[O-]", "note": "[glyceryl trinitrate]", "values": [{"measurement": "tolerance / toxicity", "setting": "[14]", "value": "development of tolerance"}]}, {"molecule": "CCN(CC)[N+]([O-])=NOCOC", "note": "[MOM-DEA/NO]", "values": [{"measurement": "#Dead/Total", "setting": "[3]; [19]", "value": "1/5"}, {"measurement": "% Protected", "setting": "[3]; [19]", "value": 80, "unit": "%"}, {"measurement": "#Dead/Total", "setting": "[3]; experiment #2, IP 200 μM two days after inoculation", "value": "1/5"}, {"measurement": "% Protected", "setting": "[3]; experiment #2, IP 200 μM, control 40% protected", "value": 80, "unit": "%"}, {"measurement": "anti-microbial effects", "setting": "[3]; two subsequent experiments, in words", "value": "not found to be significant in two subsequent experiments"}, {"measurement": "Half-life", "setting": "[1]; pH 7.4", "value": 7200, "unit": "min"}]}, {"molecule": "CCN(CC)[N+]([O-])=NOCC(C)O", "note": "(stereo not drawn) [HP-DEA/NO]", "values": [{"measurement": "Half-life", "setting": "[1]; [18]", "value": "stable"}]}, {"molecule": "CCN(CC)[N+]([O-])=NO", "note": "[DEA/NO, diethylamine-bis(nitric oxide) adduct sodium salt]", "values": [{"measurement": "#Dead/Total", "setting": "[3]; [19]", "value": "5/5"}, {"measurement": "% Protected", "setting": "[3]; [19]", "value": 0, "unit": "%"}, {"measurement": "Half-life", "setting": "[1]; pH 7.4", "value": 2, "unit": "min"}]}, {"molecule": "CCN(CC)[N+]([O-])=NOCCO", "note": "[HE-DEA/NO]", "values": [{"measurement": "Half-life", "setting": "[1]; [18]", "value": "stable"}]}, {"molecule": "C=CON=[N+]([O-])N(CC)CC", "note": "[V-DEA/NO]", "values": [{"measurement": "Half-life", "setting": "[1]; [18]", "value": "stable"}]}, {"molecule": "nitric oxide", "values": [{"measurement": "killing of intracellular pathogens", "setting": "[15]", "value": "kills intracellular pathogens such as Mycobacterium tuberculosis"}, {"measurement": "inhibition of DNA synthesis and mitochondrial respiration", "setting": "[16]", "value": "inhibit DNA synthesis and mitochondrial respiration of tumor cells in vitro"}]}, {"molecule": "COCON=[N+]([O-])NC(C)C", "note": "[MOM-IPA/NO]", "values": [{"measurement": "Half-life", "setting": "[1]; [18]", "value": "stable"}, {"measurement": "Initial Abs.", "setting": "[7]", "value": 3.530}, {"measurement": "24-hour Abs.", "setting": "[7]", "value": 3.340}, {"measurement": "degraded at 24 h", "setting": "[7]", "value": 5, "unit": "%"}]}, {"molecule": "CCCON=[N+]([O-])N(CC)CC", "note": "[P-DEA/NO]", "values": [{"measurement": "Half-life", "setting": "[1]; [18]", "value": "stable"}]}, {"molecule": "C=CCON=[N+]([O-])NC(C)C", "note": "[A-IPA/NO]", "values": [{"measurement": "Half-life", "setting": "[1]; [18]", "value": "stable"}]}, {"molecule": "N.N.O=S(=O)(O)[N+]([O-])=NO", "note": "[SULFI/NO]", "values": [{"measurement": "Half-life", "setting": "[17]", "value": 7, "unit": "min"}]}]}
